The results in this text go back to PubChem BioAssay (NCI).

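Method: 48-hour compound exposure of cells in 96-well plates, five concentrations, linear interpolation of endpoints. GI50 marks 50% less growth. Definition used: TGI = concentration required for complete inhibition of growth.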

Among the test systems are OVCAR-5 ovarian; U251 CNS; SNB-75 CNS; SF-295 CNS; KM12 colon; RPMI-8226 leukemia; HOP-62 NSCLC; CAKI-1 renal; M14 melanoma; NCI-H460 lung.
Holding throughout (test): NCI tumour cell line growth inhibition, 48 h

For the molecule `CN1c2ccc(Cl)cc2C(=O)NC1c1ccc([N+](=O)[O-])s1` (centres undefined), the TGI is 54.1 µM in the experiment with OVCAR-5 ovarian; 32.5 µM in the experiment on U251 CNS; 35.4 µM in the experiment with SNB-75 CNS; 85.7 µM in the experiment with SF-295 CNS; 31.9 µM with KM12 colon; 26.7 µM with RPMI-8226 leukemia. Further, the TGI turned out to be 59.6 µM in the experiment with HOP-62 NSCLC, 40.7 µM in the experiment on CAKI-1 renal, 32.5 µM with M14 melanoma and 36.4 µM with NCI-H460 lung.
Regarding `COc1ccccc1CCc1cc(OC)c(OC)c(OC)c1`, the TGI with OVCAR-5 ovarian was 51.3 µM; with U251 CNS it was greater than 100 µM; in the experiment on SNB-75 CNS, greater than 100 µM; in the experiment with SF-295 CNS, greater than 100 µM; with KM12 colon, greater than 100 µM; in the experiment with RPMI-8226 leukemia, 68.8 µM. Also, the TGI with HOP-62 NSCLC, in the experiment on CAKI-1 renal, with M14 melanoma and with NCI-H460 lung was greater than 100 µM in each case.
Take `C=C1C(=O)O[C@H]2[C@H]1CC/C(COC(=O)C(=O)c1cn(Cc3ccccc3)c3ccccc13)=C\CC[C@@]1(C)O[C@@H]21`: the GI50 in the experiment on OVCAR-5 ovarian is 2.56 µM; in the experiment on U251 CNS, 4.01 µM; in the experiment on SNB-75 CNS, 1.83 µM; in the experiment with SF-295 CNS, 10.5 µM; with KM12 colon it was 3.06 µM; in the experiment with RPMI-8226 leukemia it was 2.09 µM. Moreover, the GI50 in the experiment on HOP-62 NSCLC is 2.03 µM; in the experiment on CAKI-1 renal it was 2.96 µM; with M14 melanoma, 1.78 µM; in the experiment with NCI-H460 lung, 2.84 µM. In addition, the TGI turned out to be 6.82 µM in the experiment with OVCAR-5 ovarian; 14.7 µM with U251 CNS; 8.4 µM in the experiment on SNB-75 CNS; 25.6 µM with SF-295 CNS; 11.5 µM in the experiment on KM12 colon; 8.04 µM in the experiment on RPMI-8226 leukemia. The TGI was 5.51 µM in the experiment on HOP-62 NSCLC, 34.5 µM in the experiment with CAKI-1 renal, 4.13 µM with M14 melanoma and 12.2 µM in the experiment with NCI-H460 lung.
Regarding `N#C/C(=C1C=C(Br)/C(=N\O)C=C\1Cl)c1cccc2ccccc12`, the TGI was determined as 18 µM in the experiment on OVCAR-5 ovarian; 10.7 µM in the experiment with U251 CNS; 0.79 µM in the experiment on SNB-75 CNS; 12.3 µM with SF-295 CNS; 19.4 µM in the experiment on KM12 colon; 32.4 µM in the experiment on RPMI-8226 leukemia. Also, the TGI worked out at 26.4 µM with HOP-62 NSCLC, 23.4 µM in the experiment with CAKI-1 renal, 11.7 µM with M14 melanoma and 21.4 µM with NCI-H460 lung.
Turning to `COc1cc(-c2ccc3c(c2)NC(=O)/C3=C\c2ccc[nH]2)ccc1O`, the GI50 with OVCAR-5 ovarian was 0.799 µM; in the experiment with U251 CNS, 0.0221 µM; with SNB-75 CNS it was 0.0201 µM; in the experiment with SF-295 CNS, 0.0479 µM; with KM12 colon, 0.0214 µM; in the experiment with RPMI-8226 leukemia, 0.0228 µM. The GI50 with HOP-62 NSCLC is 0.0563 µM; in the experiment on CAKI-1 renal, 0.255 µM; in the experiment on M14 melanoma, 0.0176 µM; with NCI-H460 lung, 0.0194 µM. In addition, the TGI is greater than 50 µM in the experiment with OVCAR-5 ovarian; greater than 50 µM in the experiment with U251 CNS; greater than 50 µM in the experiment on SNB-75 CNS; greater than 22.6 µM in the experiment on SF-295 CNS; greater than 50 µM with KM12 colon; greater than 16.2 µM in the experiment on RPMI-8226 leukemia. Further, the TGI in the experiment on HOP-62 NSCLC was greater than 50 µM; in the experiment with CAKI-1 renal, greater than 12.9 µM; in the experiment on M14 melanoma, greater than 50 µM; with NCI-H460 lung it was greater than 50 µM.
For `O=C(N/N=C/c1ccc(Cl)cc1)c1ccc(C(F)(F)F)nc1Nc1cccc(C(F)(F)F)c1`, the GI50 in the experiment with OVCAR-5 ovarian was 3.2 µM; in the experiment with U251 CNS it was 1.55 µM; in the experiment on SNB-75 CNS it was 2.72 µM; with SF-295 CNS it was 1.17 µM; in the experiment with KM12 colon it was 2.31 µM; in the experiment with RPMI-8226 leukemia, 1.53 µM. Besides, the GI50 is 2.47 µM in the experiment on HOP-62 NSCLC, 2.37 µM in the experiment on CAKI-1 renal, 2.54 µM in the experiment on M14 melanoma and 1.66 µM with NCI-H460 lung. Moreover, the TGI in the experiment on OVCAR-5 ovarian came to 13.7 µM; with U251 CNS, 10.2 µM; with SNB-75 CNS, 13.4 µM; in the experiment with SF-295 CNS it was 4.62 µM; in the experiment on KM12 colon, 8.4 µM; in the experiment with HOP-62 NSCLC, 10.9 µM. Also, the results for the TGI in the experiment with CAKI-1 renal, in the experiment on M14 melanoma and in the experiment with NCI-H460 lung were 9.88 µM, 10 µM and 6.6 µM, respectively.
As for `COc1ccc(Nc2c3ccccc3nc3occc23)cc1`, the GI50 was 13.7 µM in the experiment on OVCAR-5 ovarian; 3.85 µM in the experiment with U251 CNS; 9.4 µM in the experiment with SNB-75 CNS; 0.533 µM with SF-295 CNS; 0.274 µM in the experiment on KM12 colon; 1.12 µM in the experiment with RPMI-8226 leukemia. For the same molecule, the GI50 in the experiment with HOP-62 NSCLC is 5.42 µM; in the experiment with CAKI-1 renal, 2.93 µM; with M14 melanoma, 2.14 µM; with NCI-H460 lung, 0.87 µM. Moreover, the TGI in the experiment with OVCAR-5 ovarian is greater than 63.4 µM; in the experiment on U251 CNS, greater than 100 µM; with SNB-75 CNS, greater than 100 µM; with SF-295 CNS it was 8.09 µM; with KM12 colon it was 5.43 µM; in the experiment with RPMI-8226 leukemia, 12.4 µM. For the same molecule, the TGI in the experiment on HOP-62 NSCLC was 30.1 µM; in the experiment on CAKI-1 renal it was greater than 42 µM; in the experiment with M14 melanoma, greater than 43.1 µM; in the experiment with NCI-H460 lung, 28.1 µM.
